Calls of active or inactive are those of the source.
Key:
[1] = Luminescence-based counterscreen assay for KLF5 inhibitors: dose response cell-based high throughput screening assay to identify cytotoxic compounds using the IEC-6 intestinal epithelial cell line. [Related pubchem assays: 1700 (Primary screen.), 1834 (Confirmation screen.), 1858 (Summary AID.), 1905 (Counterscreen.)]; assay type: functional
[2] = A549 cell cytotoxicity, dose response, cytotoxicity control, plate reader, cherry-pick, antagonist series (AID 743412); assay type: functional, cell-based
[3] = toxicity toward HepG2 liver cells – cell-based, plate reader, cherry-pick, antagonist series, cytotoxicity control, dose response (AID 743416); assay type: functional
[4] = blockers of bursicon-stimulated LGR2 cAMP reporter – cell-based, HEK293, CRE-luciferase reporter, cherry pick, set 2, dose response (AID 743343); assay type: functional;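 note: transfected cells were stimulated with diluted bursicon conditioned medium after compound addition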
[5] = blockade of melanocortin 4 receptor signaling – cell-based, plate reader, cherry pick, counter-screen for LGR2 antagonist project, dose response (AID 743444); assay type: functional;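 note: transfected HEK 293 cells stimulated with alpha-MSH peptide; potency of inhibitors of the alpha-MSH evoked signal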
[6] = biological target: T1, Oxysterols receptor LXR-beta (Homo sapiens, UniProt P55055); assay type: functional, cell-based;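 note: Cell-based luminescence dose-response assay of agonist activity at LXR, run as a confirmatory counterscreen to a daf-12 agonist screen; HEK293 cells with Gal4-LXR fusion and GAL4-driven luciferase reporter; agonist potency from rising luciferase signal of a Gal4-LXR reporter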
T1 sequence (P55055 whole entry): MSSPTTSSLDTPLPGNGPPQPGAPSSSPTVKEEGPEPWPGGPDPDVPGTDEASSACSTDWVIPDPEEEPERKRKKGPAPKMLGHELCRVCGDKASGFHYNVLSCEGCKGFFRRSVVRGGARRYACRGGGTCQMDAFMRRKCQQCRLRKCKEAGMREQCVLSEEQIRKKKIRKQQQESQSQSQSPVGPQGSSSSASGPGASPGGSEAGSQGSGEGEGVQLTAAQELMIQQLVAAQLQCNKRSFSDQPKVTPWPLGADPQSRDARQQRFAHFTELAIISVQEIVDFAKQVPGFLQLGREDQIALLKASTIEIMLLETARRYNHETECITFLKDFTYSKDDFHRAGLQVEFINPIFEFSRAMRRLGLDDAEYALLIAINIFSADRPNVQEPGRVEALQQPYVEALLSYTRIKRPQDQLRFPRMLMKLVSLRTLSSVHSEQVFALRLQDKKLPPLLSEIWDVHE

Estrogen receptor = biological target: T2, Estrogen receptor (Homo sapiens, UniProt P03372); experiment: ERα coactivator recruitment enhancers – biochemical, TR-FRET, ERα LBD, dose response (AID 737)
T2 sequence (P03372 whole entry): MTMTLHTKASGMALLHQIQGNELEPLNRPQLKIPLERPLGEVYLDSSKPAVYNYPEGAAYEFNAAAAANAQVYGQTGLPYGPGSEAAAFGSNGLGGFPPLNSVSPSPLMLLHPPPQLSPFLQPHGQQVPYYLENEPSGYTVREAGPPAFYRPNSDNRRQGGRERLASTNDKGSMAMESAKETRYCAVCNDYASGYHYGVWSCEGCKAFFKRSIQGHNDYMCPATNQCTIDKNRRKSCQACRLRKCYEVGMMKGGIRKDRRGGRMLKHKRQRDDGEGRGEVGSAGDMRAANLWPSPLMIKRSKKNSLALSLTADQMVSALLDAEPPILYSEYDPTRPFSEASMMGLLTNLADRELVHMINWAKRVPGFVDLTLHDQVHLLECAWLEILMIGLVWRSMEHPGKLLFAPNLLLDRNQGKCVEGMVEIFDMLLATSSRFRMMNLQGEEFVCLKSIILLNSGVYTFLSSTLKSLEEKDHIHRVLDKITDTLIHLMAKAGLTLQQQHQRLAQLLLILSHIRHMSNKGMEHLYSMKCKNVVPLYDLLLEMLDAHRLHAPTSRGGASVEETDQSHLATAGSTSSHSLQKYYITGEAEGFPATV

[7] = luciferase reporter signal suppression in cells – H4 neuroglioma cells, luminescence, dose response (AID 1990); assay type: functional, cell-based
[8] = Luminescence Cell-Based Dose Response HTS to Identify Inhibitors of 5'UTR Stem-Loop Driven Prion Protein mRNA Translation in H4 Neuroglioblastoma Cells. [Related pubchem assays: 1827 (Project Summary), 1813 (Primary HTS)]; assay type: functional
[9] = biological target: T3, Heat shock factor protein 1 (Mus musculus, UniProt P38532); experiment: decrease of HSF1-responsive luciferase luminescence – cell-based, NIH3T3, dose retest, confirmation (AID 2382); assay type: functional;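 note: NIH3T3 fibroblasts with HSF1-driven luciferase reporter stressed by proteasome inhibitor MG132; luminescence from HSF1-driven luciferase expression after 8 hours of MG132 stress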
T3 sequence (P38532 whole entry): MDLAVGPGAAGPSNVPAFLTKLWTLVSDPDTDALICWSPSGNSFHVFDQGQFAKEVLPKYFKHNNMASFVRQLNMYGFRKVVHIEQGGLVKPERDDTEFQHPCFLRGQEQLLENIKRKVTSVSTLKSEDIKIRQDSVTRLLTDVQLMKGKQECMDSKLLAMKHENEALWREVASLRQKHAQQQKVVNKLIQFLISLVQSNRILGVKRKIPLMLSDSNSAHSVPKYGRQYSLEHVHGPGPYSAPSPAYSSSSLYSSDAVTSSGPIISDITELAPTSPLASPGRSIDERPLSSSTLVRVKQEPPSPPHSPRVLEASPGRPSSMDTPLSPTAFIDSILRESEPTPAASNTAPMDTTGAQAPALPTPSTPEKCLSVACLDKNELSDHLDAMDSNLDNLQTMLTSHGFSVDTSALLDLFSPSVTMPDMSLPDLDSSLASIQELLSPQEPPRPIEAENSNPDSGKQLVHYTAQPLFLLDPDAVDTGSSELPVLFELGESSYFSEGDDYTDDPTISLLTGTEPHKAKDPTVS

[10] = alpha-synuclein stem-loop luciferase translation blockers – H4 neuroglioma cells, luminescence, confirmation (AID 1988); assay type: functional, cell-based
[11] = Luminescence-based dose response cell-based high throughput screening assay for cytotoxic compounds using the IEC-6 intestinal epithelial cell line. [Related pubchem assays: 1858 (Summary AID.), 1825 (Counterscreen.), 1907 (Confirmation screen.)]; assay type: functional
[12] = biological target: T4, Replicative DNA helicase DnaB (Mycobacterium tuberculosis, UniProt P9WMR3); experiment: DnaB intein splicing inhibitors, dose response, biochemical, cell-free fluorescence (AID 449749); assay type: functional
T4 sequence (P9WMR3 whole entry): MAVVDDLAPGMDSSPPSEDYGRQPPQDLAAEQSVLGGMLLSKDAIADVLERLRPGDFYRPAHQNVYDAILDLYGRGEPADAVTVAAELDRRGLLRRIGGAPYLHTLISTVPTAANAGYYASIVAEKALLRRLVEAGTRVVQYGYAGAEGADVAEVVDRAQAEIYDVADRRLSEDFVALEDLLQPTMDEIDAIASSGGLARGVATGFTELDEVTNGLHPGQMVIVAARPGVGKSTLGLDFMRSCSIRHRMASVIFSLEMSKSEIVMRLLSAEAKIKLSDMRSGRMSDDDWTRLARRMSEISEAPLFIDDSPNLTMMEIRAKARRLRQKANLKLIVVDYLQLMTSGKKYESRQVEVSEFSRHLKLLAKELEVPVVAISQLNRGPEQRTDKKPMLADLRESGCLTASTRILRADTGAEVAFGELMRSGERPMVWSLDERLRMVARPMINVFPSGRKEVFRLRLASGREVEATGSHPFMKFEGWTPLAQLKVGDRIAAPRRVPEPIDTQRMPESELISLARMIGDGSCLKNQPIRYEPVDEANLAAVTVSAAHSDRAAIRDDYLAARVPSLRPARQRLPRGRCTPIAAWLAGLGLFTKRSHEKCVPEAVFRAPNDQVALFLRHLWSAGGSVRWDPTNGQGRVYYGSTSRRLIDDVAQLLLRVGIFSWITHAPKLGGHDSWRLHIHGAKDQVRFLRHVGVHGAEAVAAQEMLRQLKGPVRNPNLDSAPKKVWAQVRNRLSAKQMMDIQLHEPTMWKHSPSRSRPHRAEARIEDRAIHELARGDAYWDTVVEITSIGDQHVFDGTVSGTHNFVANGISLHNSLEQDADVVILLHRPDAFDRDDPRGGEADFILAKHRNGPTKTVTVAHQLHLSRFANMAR

Protein RecA = biological target: T5, Protein RecA (Mycobacterium tuberculosis, UniProt P9WHJ3); experiment: Fluorescence Cell-Free Homogeneous Dose Retest to Identify Inhibitors of RecA-Intein Splicing Activity. [Related pubchem assays (depositor defined):AID2097, AID2223, AID489010, AID492950]; assay type: functional
T5 sequence (P9WHJ3 whole entry): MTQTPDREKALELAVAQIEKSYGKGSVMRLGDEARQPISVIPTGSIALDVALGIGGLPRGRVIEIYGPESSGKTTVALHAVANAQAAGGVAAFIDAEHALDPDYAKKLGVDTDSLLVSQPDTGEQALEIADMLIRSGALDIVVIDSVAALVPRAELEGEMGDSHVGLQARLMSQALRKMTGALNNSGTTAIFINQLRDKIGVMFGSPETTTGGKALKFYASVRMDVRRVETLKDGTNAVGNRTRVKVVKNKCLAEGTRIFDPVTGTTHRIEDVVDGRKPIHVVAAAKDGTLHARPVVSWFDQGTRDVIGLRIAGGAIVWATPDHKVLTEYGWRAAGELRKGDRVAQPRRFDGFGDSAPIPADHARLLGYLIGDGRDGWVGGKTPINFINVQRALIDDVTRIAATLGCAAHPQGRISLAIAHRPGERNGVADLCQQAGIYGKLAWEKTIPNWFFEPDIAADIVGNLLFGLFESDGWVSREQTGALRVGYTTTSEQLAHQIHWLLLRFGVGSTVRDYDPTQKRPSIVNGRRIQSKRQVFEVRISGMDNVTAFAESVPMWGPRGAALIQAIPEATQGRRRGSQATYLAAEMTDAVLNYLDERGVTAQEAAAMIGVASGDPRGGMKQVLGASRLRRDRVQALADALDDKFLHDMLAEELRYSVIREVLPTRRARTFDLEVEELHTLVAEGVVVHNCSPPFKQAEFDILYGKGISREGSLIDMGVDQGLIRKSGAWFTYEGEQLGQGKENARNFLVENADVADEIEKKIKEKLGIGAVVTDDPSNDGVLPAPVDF

O=C(c1cc(-c2ccccc2Cl)on1)N1CCCC1
inactive: AC50 [2] > 52 µM | AC50 [3] > 52 µM | EC50 [6] > 67.5 µM | EC50 (cells) > 67.5 µM
active: AC50 [4] 7.48 µM | AC50 [5] 12.1 µM
> 39.8 µM (not active): IC50 [1]

Cc1cc2oc(=O)cc(COC(=O)c3[nH]nc4ccccc34)c2cc1C
active: EC50 (Estrogen receptor) 13.5 µM

O=C1C=C(NCCN2CCOCC2)C(=O)c2cnccc21
active: EC50 [7] 1.99 µM | EC50 [8] 6.81 µM | EC50 [9] 10.4 µM | EC50 [10] 1.88 µM | IC50 [11] 0.512 µM | AC50 [12] 0.979 µM | EC50 (Protein RecA) 0.536 µM

Source: ChEMBL document CHEMBL1201862, “PubChem BioAssay data set” (2004)
